Results reported in US20110190365A1, “Insecticidal 4-phenyl-1H-pyrazoles” (Bayer Crop Science AG, priority 2008, published 2011).

experiment: log P by HPLC on a reversed-phase column (C18), EEC Directive 79/831 Annex V.A8; assay type: physicochemical; settings: HCOOH
Protocol: The stated log P values were determined in accordance with EEC Directive 79/831 Annex V.A8 by HPLC (High Performance Liquid Chromatography) using a reversed-phase column (C18).

SMILES	log P (HCOOH)
Cc1cc(-n2nc(C(F)(F)F)c(-c3cc(Cl)cc(Cl)c3)c2N)ccc1C(=O)NCC(F)(F)F [I-A-Q2-014]	I-A-Q2-014: log P (HCOOH): 4.34
Nc1c(-c2cc(Cl)cc(Cl)c2)c(C(F)(F)F)nn1-c1ccc(C(=O)NCC(F)(F)C(F)F)c(Cl)c1 [I-A-Q2-384]	I-A-Q2-384: log P (HCOOH): 4.53
CCOC(=O)c1ccc(-n2nc(C(F)(F)F)c(Br)c2N)cc1 [XI-A-018]	XI-A-018: log P (HCOOH): 3.60
Cc1cc(-n2nc(C)c(-c3c(Cl)cccc3Cl)c2N)ccc1C(=O)NCC(F)(F)C(F)F [I-A-Q2-336]	I-A-Q2-336: log P (HCOOH): 2.76
C#CCNC(=O)c1ccc(-n2nc(C(F)(F)F)c(-c3cc(Cl)cc(Cl)c3)c2N)cc1C [I-A-Q2-238]	I-A-Q2-238: log P (HCOOH): 3.78
CNC(=O)c1ccc(-n2nc(C(F)(F)F)c(-c3ccccc3Cl)c2N)cc1 [I-A-Q2-082]	I-A-Q2-082: log P (HCOOH): 2.46
CC(C)NC(=O)c1ccc(-n2nc(C(F)(F)F)c(-c3cc(Cl)cc(Cl)c3)c2N)nc1 [I-A-Q2-097]	I-A-Q2-097: log P (HCOOH): 4.64
Cc1cc(-n2nc(C(F)(F)F)c(-c3cc(Cl)cc(Cl)c3)c2N)ccc1C(=O)NCCO [I-A-Q2-272]	I-A-Q2-272: log P (HCOOH): 3.24
COc1ccc(-c2c(C)nn(-c3ccc(C(=O)NCC(F)(F)C(F)F)c(C)c3)c2N)cc1 [I-A-Q2-324]	I-A-Q2-324: log P (HCOOH): 2.30
Cc1cc(-n2nc(C(F)F)c(-c3ccc(F)cc3F)c2N)ccc1C(=O)NCC(F)(F)C(F)F [I-A-Q2-319]	I-A-Q2-319: log P (HCOOH): 2.80
Nc1c(-c2cc(Cl)cc(Cl)c2)c(C(F)(F)F)nn1-c1ccc(C(=O)NCC2CC2)cc1 [I-A-Q2-149]	I-A-Q2-149: log P (HCOOH): 4.15
Nc1c(-c2ccc(Cl)cc2)c(C(F)(F)F)nn1-c1ccc(C(=O)NCC(F)F)cc1 [I-A-Q2-164]	I-A-Q2-164: log P (HCOOH): 3.27
COc1ccnc(CNC(=O)c2ccc(-n3nc(C(F)(F)F)c(-c4cc(Cl)cc(Cl)c4)c3N)cc2C)c1 [I-A-Q2-052]	I-A-Q2-052: log P (HCOOH): 2.34
Cc1cc(-n2nc(C(F)(F)Oc3ccc(Cl)c(Cl)c3)c(-c3cc(Cl)cc(C(F)(F)F)c3)c2N)ccc1C(=O)NCC(F)(F)C(F)F [I-A-Q2-300]	I-A-Q2-300: log P (HCOOH): 5.40
Cc1cc(-n2nc(C(F)(F)C(F)(F)F)c(-c3cc(C(F)(F)F)cc(C(F)(F)F)c3)c2N)ccc1C(=O)NCC(F)(F)C(F)F [I-A-Q2-343]	I-A-Q2-343: log P (HCOOH): 4.57
Cc1cc(-n2nc(C(F)(F)F)c(-c3cc(F)c(F)c(F)c3)c2N)ccc1C(=O)NCc1ccccn1 [I-A-Q2-358]	I-A-Q2-358: log P (HCOOH): 2.80
CC(NC(=O)c1ccc(-n2nc(C(F)(F)F)c(-c3cccc(Cl)c3)c2N)cc1)C(F)(F)F (stereo not shown) [I-A-Q2-083]	I-A-Q2-083: log P (HCOOH): 3.68
Cc1cc(-n2nc(C(F)(F)Oc3ccccc3)c(-c3cc(Cl)cc(C(F)(F)F)c3)c2N)ccc1C(=O)NCC(F)(F)C(F)F [I-A-Q2-299]	I-A-Q2-299: log P (HCOOH): 4.51
CNC(=O)c1ccc(-n2nc(C(F)(F)F)c(-c3cc(Cl)cc(Cl)c3)c2N)cc1 [I-A-Q2-193]	I-A-Q2-193: log P (HCOOH): 3.42
Cc1cc(-n2nc(C(F)(F)F)c(-c3cc(Cl)cc(Cl)c3)c2N)ccc1C(=O)NCc1ccccc1 [I-A-Q2-271]	I-A-Q2-271: log P (HCOOH): 4.45
Cc1cc(-n2nc(C(F)(F)F)c(-c3cc(Cl)cc(Cl)c3)c2N)ccc1C(=O)NC(c1ccc(N(C)C)cc1)C(F)(F)F (stereo not shown) [I-A-Q2-246]	I-A-Q2-246: log P (HCOOH): 5.02
Nc1c(-c2ccc(Cl)c(F)c2)c(C(F)(F)F)nn1-c1ccc(C(=O)NCc2ccccn2)cc1 [I-A-Q2-168]	I-A-Q2-168: log P (HCOOH): 2.61
CCOC(=O)c1ccc(-n2nc(C(F)(F)F)c(Cl)c2N)cc1 [XI-A-042]	XI-A-042: log P (HCOOH): 3.52
Cc1cc(-n2nc(C(F)(F)Cl)c(-c3cc(Cl)cc(C(F)(F)F)c3)c2N)ccc1C(=O)NCC(F)(F)C(F)F [I-A-Q2-322]	I-A-Q2-322: log P (HCOOH): 4.34
CC(C)NC(=O)c1ccc(-n2nc(C(F)(F)F)c(-c3ccc(Cl)cc3)c2N)cc1 [I-A-Q2-161]	I-A-Q2-161: log P (HCOOH): 3.37

SMILES	log P (HCOOH)
CCCCCNC(=O)c1ccc(-n2nc(C(F)(F)F)c(-c3cc(Cl)cc(Cl)c3)c2N)cc1C [I-A-Q2-237]	I-A-Q2-237: log P (HCOOH): 4.76
Cc1cc(-n2nc(C(F)(F)F)c(-c3cc(Cl)cc(Cl)c3)c2N)ccc1C(=O)NCc1ncccc1C [I-A-Q2-029]	I-A-Q2-029: log P (HCOOH): 3.24
Cc1cc(-n2nc(C(F)(F)F)c(-c3ccc(Cl)c(Cl)c3)c2N)ccc1C(=O)NC(C)C(F)(F)F (stereo not shown) [I-A-Q2-019]	I-A-Q2-019: log P (HCOOH): 4.57
Cc1cc(-n2nc(C(F)(F)F)c(-c3cc(C(F)(F)F)cc(C(F)(F)F)c3)c2N)ccc1C(=O)NCC(F)(F)C(F)F [I-A-Q2-318]	I-A-Q2-318: log P (HCOOH): 4.23
Nc1c(-c2cc(Cl)cc(Cl)c2)c(C(F)(F)F)nn1-c1ccc(C(=O)NCc2cccnc2)cn1 [I-A-Q2-107]	I-A-Q2-107: log P (HCOOH): 2.95
Cc1cc(-n2nc(C(F)(F)F)c(I)c2N)ccc1C(=O)NCC(F)(F)C(F)F [XI-A-094]	XI-A-094: log P (HCOOH): 3.08
Cc1cc(-n2nc(C3CCCO3)c(-c3cc(Cl)cc(C(F)(F)F)c3)c2N)ccc1C(=O)NCC(F)(F)C(F)F (stereo not shown) [I-A-Q2-290]	I-A-Q2-290: log P (HCOOH): 4.00
Cc1cc(-n2nc(C(F)(F)F)c(-c3cc(Cl)cc(Cl)c3)c2Cl)ccc1C(=O)NCc1ncccn1 [I-A-Q2-277]	I-A-Q2-277: log P (HCOOH): 4.56
Cc1cc(-n2nc(C(F)(F)F)c(Br)c2N)ccc1C(=O)NCC(F)(F)C(F)F [XI-A-092]	XI-A-092: log P (HCOOH): 3.03
Cc1cc(-n2nc(C(F)(F)F)c(-c3cc(Cl)cc(Cl)c3)c2N)ccc1C(=O)NC1COC1 [I-A-Q2-044]	I-A-Q2-044: log P (HCOOH): 3.42
Cc1cc(-n2nc(C(F)(F)F)c(-c3c(F)cc(F)cc3F)c2N)ccc1C(=O)NCc1ccccn1 [I-A-Q2-350]	I-A-Q2-350: log P (HCOOH): 2.34
CCNC(=O)c1ccc(-n2nc(C(F)(F)F)c(-c3cc(Cl)cc(Cl)c3)c2N)cc1C [I-A-Q2-270]	I-A-Q2-270: log P (HCOOH): 3.84
Cc1cc(-n2nc(C(F)(F)C(F)(F)F)c(-c3ccc(Cl)cc3)c2N)ccc1C(=O)NCc1ccccn1 [I-A-Q2-363]	I-A-Q2-363: log P (HCOOH): 3.19
Cc1cc(-n2nc(C(F)(F)F)c(Br)c2N)ccc1C(=O)O [XI-A-086]	XI-A-086: log P (HCOOH): 2.54
CNC(=O)c1ccc(-n2nc(C(F)(F)F)c(-c3cccc(Cl)c3)c2N)cc1 [I-A-Q2-094]	I-A-Q2-094: log P (HCOOH): 2.76
Cc1cc(-n2nc(C(F)(F)F)c(-c3cc(Cl)cc(Cl)c3)c2N)ccc1C(=O)N(C)C(C)c1ccncc1 (stereo not shown) [I-A-Q2-211]	I-A-Q2-211: log P (HCOOH): 2.89
Cc1cc(-n2nc(C(F)(F)F)c(-c3ccc(C#N)cc3)c2N)ccc1C(=O)NCc1ccccn1 [I-A-Q2-349]	I-A-Q2-349: log P (HCOOH): 2.04
Cc1cc(-n2nc(C(F)(F)F)c(-c3cc(Cl)cc(Cl)c3)c2N)ccc1C(=O)NCC(F)(F)C(F)(F)C(F)(F)C(F)(F)C(F)(F)C(F)(F)C(F)(F)F [I-A-Q2-267]	I-A-Q2-267: log P (HCOOH): 6.14
Cc1cc(-n2nc(C(F)(F)F)c(-c3cc(Cl)cc(Cl)c3)c2N)ccc1C(=O)NCc1cc(-c2ccccc2)ccn1 [I-A-Q2-206]	I-A-Q2-206: log P (HCOOH): 4.29
COc1cc(-c2c(C(F)(F)F)nn(-c3ccc(C(=O)NCC(F)(F)C(F)F)c(C)c3)c2N)cc(Cl)c1OC [I-A-Q2-292]	I-A-Q2-292: log P (HCOOH): 3.53
Cc1cc(-n2nc(C(F)(F)F)c(-c3ccc(F)c(Cl)c3)c2N)ccc1C(=O)NCC(F)(F)C(F)F [I-A-Q2-309]	I-A-Q2-309: log P (HCOOH): 3.65
CCCNC(=O)c1ccc(-n2nc(C(F)(F)F)c(-c3cc(Cl)cc(Cl)c3)c2N)cc1 [I-A-Q2-151]	I-A-Q2-151: log P (HCOOH): 4.06
Cc1cc(-n2nc(C(F)(F)F)c(-c3cc(Cl)cc(Cl)c3)c2N)ccc1C(=O)NCc1cccnc1 [I-A-Q2-216]	I-A-Q2-216: log P (HCOOH): 2.57
Cc1cc(-n2nc(C(F)(F)F)c(-c3cc(Cl)cc(Cl)c3)c2N)ccc1C(=O)NCc1ccc(Cl)nc1 [I-A-Q2-219]	I-A-Q2-219: log P (HCOOH): 4.05

same assay, conditions: HCOOH; Table 4, compounds of formula I-A-Q4

SMILES	log P (HCOOH)
N#Cc1ccc(-c2c(C(F)(F)F)nn(-c3ccc(Cl)cn3)c2N)cc1 [I-A-Q4-045]	I-A-Q4-045: log P (HCOOH): 4.11
Nc1c(-c2cc(Cl)cc(C(F)(F)F)c2)c(C(F)(F)Cl)nn1-c1ccc(Cl)cn1 [I-A-Q4-059]	I-A-Q4-059: log P (HCOOH): 5.81
Cc1cc(C)cc(-c2c(C(F)(F)F)nn(-c3ccc(C(=O)O)cc3)c2N)c1 [I-A-Q4-090]	I-A-Q4-090: log P (HCOOH): 3.42
Nc1c(-c2cc(Cl)cc(Cl)c2)c(C(F)(F)F)nn1-c1ccc(C(=O)O)c(C(F)(F)F)c1 [I-A-Q4-115]	I-A-Q4-115: log P (HCOOH): 4.22
Nc1c(-c2cc(Cl)cc(Cl)c2)c(C(F)(F)F)nn1-c1ccc(F)c(C(F)(F)F)c1 [I-A-Q4-105]	I-A-Q4-105: log P (HCOOH): 5.25
Nc1c(-c2ccc(Cl)cc2)c(-c2ccccc2)nn1-c1ccc(Cl)cn1 [I-A-Q4-028]	I-A-Q4-028: log P (HCOOH): 5.64
CCCc1nn(-c2ccc(Cl)cn2)c(N)c1-c1ccc(Cl)cc1 [I-A-Q4-025]	I-A-Q4-025: log P (HCOOH): 5.51

same assay, conditions: HPLC, reversed-phase C18, mobile phase with formic acid

SMILES	log P (HCOOH)
Cc1nn(-c2ccc(-n3cncn3)c(C#N)c2)c(N)c1-c1c(F)cccc1Cl [I-A-Q1-051]	I-A-Q1-051: log P (HCOOH): 2.27
Cc1nn(-c2ccc(-n3cncn3)c(C#N)c2)c(N)c1-c1ccccc1Cl [I-A-Q1-060]	I-A-Q1-060: log P (HCOOH): 2.27
Cc1nn(-c2ccc(-n3cncn3)c(C#N)c2)c(N)c1-c1c(Cl)cccc1Cl [I-A-Q1-055]	I-A-Q1-055: log P (HCOOH): 2.47
CCCc1nn(-c2ccc(-n3cncn3)c(C#N)c2)c(N)c1-c1ccc(Cl)cc1 [I-A-Q1-065]	I-A-Q1-065: log P (HCOOH): 3.33
N#Cc1cc(-n2nc(C(F)(F)F)c(-c3cc(Cl)cc(Cl)c3)c2N)ccc1-n1cccn1 [I-A-Q1-082]	I-A-Q1-082: log P (HCOOH): 4.34
